Here are results for 37 compounds from patent US20240002388A1, “PYRIMIDINONE COMPOUNDS AND USES THEREOF” (HUTCHISON MEDIPHARMA LIMITED, priority 2020, published 2024).

pIC50: −log10 of the molar value.

Broadly, the pIC50 is the negative decadic logarithm of the IC50, by convention in mol/L.

The subject of one assay is U937 cell line (human histiocytic lymphoma cell line). Briefly: U937 cell viability assay (TNF-α + Z-VAD-FMK induced necroptosis). Conditions: Homo sapiens, U-937; U937 cells, hTNF-α 0.1 μg/mL + Z-VAD-FMK 50 μM, 20 hours, CellTiter-Glo. The assay is classed as cell-based. Put shortly: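 U937 cells (1.75×10^4/well, 1% FBS RPMI 1640) were preincubated 1 h with compound (0.0005–1.0 μM, 0.3% DMSO) and 50 μM Z-VAD-FMK, then stimulated with 0.1 μg/mL TNF-α for 20 h at 37 °C. Viability was read by CellTiter-Glo luminescence. Inhibition was normalised between TNF-α+Z-VAD and unstimulated wells, and IC50 was fitted.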
Turning to `CC[C@H](C)n1cncc(-c2ccc(C3(NC(=O)c4ncc5cnn(C(C)C)c5n4)CC3)cc2)c1=O` [Compound 43], the pIC50 was 8.70.

For `CC[C@@H](C)n1cncc(-c2ccc(C3(NC(=O)c4ncc5cnn(C(C)C)c5n4)CC3)cc2)c1=O` [Compound 44], the pIC50 is 8.70.

In the case of `CC(C)Cn1cncc(-c2ccc(C3(NC(=O)c4ncc5cnn(C(C)C)c5n4)CC3)cc2)c1=O` [Compound 45], the pIC50 was 8.70.

`Cn1cncc(-c2ccc(C3(NC(=O)c4nc5n(n4)[C@@H](c4ccccc4)CC5)CC3)cc2)c1=O` [Compound 54, (R)—N-(1-(4-(1-methyl-6-oxo-1,6-dihydropyrimidin-5-yl)phenyl)cyclopropyl)-5-phenyl-6,7-dihydro-5H-pyrrolo[1,2-b][1,2,4]triazole-2-carboxamide]: the pIC50 is 7.92.

As to `C[C@H](c1ccccc1)n1cnc(C(=O)NC2(c3ccc(-c4cncn(C)c4=O)cc3)CC2)n1` [Compound 55, (R)—N-(1-(4-(1-methyl-6-oxo-1,6-dihydropyrimidin-5-yl)phenyl)cyclopropyl)-1-(1-phenylethyl)-1H-1,2,4-triazole-3-carboxamide], the pIC50 was 8.15.

Turning to `CC(C)n1cncc(-c2ccc(C3(NC(=O)c4ncc5cnn(C6COC6)c5n4)CC3)cc2)c1=O` [Compound 60], the pIC50 is 7.18.

As to `CC(C)n1cncc(-c2ccc(C3(NC(=O)c4ncc5cnn(CC6CC6)c5n4)CC3)cc2)c1=O` [Compound 61], the pIC50 was 8.52.

In the case of `CC(C)n1cncc(-c2ccc(C3(NC(=O)c4ncc5cnn(CC6CCC6)c5n4)CC3)cc2)c1=O` [Compound 62], the pIC50 was 8.70.

For `CC(C)n1cncc(-c2ccc(C3(NC(=O)c4ncc5cnn(-c6ccccn6)c5n4)CC3)cc2)c1=O` [Compound 63], the pIC50 is 7.29.

Consider `O=C(NC1(c2ccc(-c3cncn(CC4CC4)c3=O)cc2)CC1)c1ncc2cnn(CC3CC3)c2n1` [Compound 64], for which the pIC50 was 8.70.

`CC(C)n1ncc2cnc(C(=O)NC3(c4ccc(-c5cncn(C6CC(F)(F)C6)c5=O)cc4)CC3)nc21` [Compound 65]: the pIC50 was 8.15.

With `CC(C)n1ncc2cnc(C(=O)NC3(c4ccc(-c5cncn(CC6CCC6)c5=O)cc4)CC3)nc21` [Compound 66], the pIC50 is 8.52.

With `CC(C)n1ncc2cnc(C(=O)NC3(c4ccc(-c5cncn([C@H]6C[C@@H]6F)c5=O)cc4)CC3)nc21` [Compound 67], the pIC50 was 7.04.

Take `C[C@H](n1cncc(-c2ccc(C3(NC(=O)c4ncc5cnn(CC6CC6)c5n4)CC3)cc2)c1=O)C(F)(F)F` [Compound 68]: the pIC50 was 8.22.

`CC(C)n1ncc2cnc(C(=O)NC3(c4ccc(-c5cncn([C@@H]6C[C@@H]6F)c5=O)cc4)CC3)nc21` [Compound 69]: the pIC50 was 8.05.

As to `C[C@@H](n1cncc(-c2ccc(C3(NC(=O)c4ncc5cnn(CC6CC6)c5n4)CC3)cc2)c1=O)C(F)(F)F` [Compound 70], the pIC50 is 8.70.

With `C[C@H](n1cncc(-c2ccc(C3(NC(=O)c4ncc5cnn(CC6CC6)c5n4)CC3)c(F)c2)c1=O)C(F)(F)F` [Compound 71], the pIC50 was 8.52.

As for `CC(C)n1cncc(-c2ccc(C3(NC(=O)c4ncc5cnn(CC6CC6)c5n4)CC3)c(F)c2)c1=O` [Compound 72], the pIC50 is 8.70.

`CC(C)n1cncc(-c2ccc(C3(NC(=O)c4ncc5cnn(CC6CC6)c5n4)CC3)cc2F)c1=O` [Compound 73]: the pIC50 was 8.70.

In the case of `CC(C)n1ncc2cnc(C(=O)NC3(c4ccc(-c5cncn(CC6CC6)c5=O)cc4F)CC3)nc21` [Compound 74], the pIC50 was 9.00.

For the compound `CC(C)n1ncc2cnc(C(=O)NC3(c4ccc(-c5cncn(CC6CC6)c5=O)c(F)c4)CC3)nc21` [Compound 75], the pIC50 is 8.70.

`C[C@@H](n1cncc(-c2ccc(C3(NC(=O)c4ncc5cnn(CC6CC6)c5n4)CC3)c(F)c2)c1=O)C(F)(F)F` [Compound 76]: the pIC50 is 8.52.

`CC(C)n1ncc2cnc(C(=O)NC3(c4ccc(-c5cncn(C6CCOCC6)c5=O)cc4)CC3)nc21` [Compound 77]: the pIC50 was 8.00.

On to `CC(C)n1ncc2cnc(C(=O)NC3(c4ccc(-c5cncn(C6(C)CC6)c5=O)cc4)CC3)nc21` [Compound 78], for which the pIC50 is 8.10.

In the case of `CC(C)n1ncc2cnc(C(=O)NC3(c4ccc(-c5cncn(C6(C)CCC6)c5=O)cc4)CC3)nc21` [Compound 79], the pIC50 was 8.70.

`CC(C)n1ncc2cnc(C(=O)NC3(c4ccc(-c5cncn([C@H](C)C6CC6)c5=O)cc4)CC3)nc21` [Compound 84, (R)—N-(1-(4-(1-(1-cyclopropylethyl)-6-oxo-1,6-dihydropyrimidin-5-yl)phenyl)cyclopropyl)-1-i-propyl-1H-pyrazolo[3,4-d]pyrimidine-6-carboxamide]: the pIC50 is 9.00.

As for `CC(C)n1ncc2cnc(C(=O)NC3(c4ccc(-c5cncn([C@@H](C)C6CC6)c5=O)cc4)CC3)nc21` [Compound 85, (S)—N-(1-(4-(1-(1-cyclopropylethyl)-6-oxo-1,6-dihydropyrimidin-5-yl)phenyl)cyclopropyl)-1-i-propyl-1H-pyrazolo[3,4-d]pyrimidine-6-carboxamide], the pIC50 is 8.70.

As for `CC(C)n1ncc2cnc(C(=O)NC3(c4ccc(-c5cncn(CC6(C)CC6)c5=O)cc4)CC3)nc21` [Compound 86], the pIC50 is 9.00.

Consider `CC(C)n1ncc2cnc(C(=O)NC3(c4ccc(-c5cncn([C@H]6C[C@H](F)C6)c5=O)cc4)CC3)nc21` [Compound 87, N-(1-(4-(1-(trans-3-fluorocyclobutyl)-6-oxo-1,6-dihydropyrimidin-5-yl)phenyl)cyclopropyl)-1-i-propyl-1H-pyrazolo[3,4-d]pyrimidine-6-carboxamide], for which the pIC50 was 7.96.

Regarding `CC(C)n1cncc(-c2ccc(C3(NC(=O)c4ncc5cnn([C@H](C)C6CC6)c5n4)CC3)cc2)c1=O` [Compound 89, (R)-1-(1-cyclopropylethyl)-N-(1-(4-(1-i-propyl-6-oxo-1,6-dihydropyrimidin-5-yl)phenyl)cyclopropyl)-1H-pyrazolo[3,4-d]pyrimidine-6-carboxamide], the negative-log IC50 (pIC50) is 8.30.

As for `CC(C)n1cncc(-c2ccc(C3(NC(=O)c4ncc5cnn([C@@H](C)C6CC6)c5n4)CC3)cc2)c1=O` [Compound 90, (S)-1-(1-cyclopropylethyl)-N-(1-(4-(1-i-propyl-6-oxo-1,6-dihydropyrimidin-5-yl)phenyl)cyclopropyl)-1H-pyrazolo[3,4-d]pyrimidine-6-carboxamide], the pIC50 is 8.40.

With `CC(C)n1cncc(-c2ccc(C3(NC(=O)c4ncc5cnn(C(C)C)c5n4)CC3)c(F)c2Cl)c1=O` [Compound 91], the pIC50 was 7.96.

Consider `CC(C)n1cncc(-c2cc(F)c(C3(NC(=O)c4ncc5cnn(C(C)C)c5n4)CC3)c(F)c2)c1=O` [Compound 92], for which the pIC50 is 7.00.

With `CC(C)n1cncc(-c2ccc(C3(NC(=O)c4ncc5cnn(C(C)C)c5n4)CC3)c(F)c2F)c1=O` [Compound 93], the pIC50 was 8.22.

Turning to `CC(C)n1ncc2cnc(C(=O)NC3(c4cc(F)c(-c5cncn(CC6CC6)c5=O)cc4F)CC3)nc21` [Compound 94], the pIC50 is 8.52.

In the case of `CC(C)n1ncc2cnc(C(=O)NC3(c4ccc(-c5cncn(CC6CC6)c5=O)c(F)c4F)CC3)nc21` [Compound 95], the pIC50 is 8.52.

The assay is the same for the next values; noted with them: U937 cells, hTNF-α 0.1 μg/mL + Z-VAD-FMK 50 μM, 20 hours, CellTiter-Glo.
For the compound `CC(C)n1ncc2cnc(C(=O)NC3(c4ccc(-c5cncn([C@H]6C[C@@H](F)C6)c5=O)cc4)CC3)nc21` [Compound 88, N-(1-(4-(1-(cis-3-fluorocyclobutyl)-6-oxo-1,6-dihydropyrimidin-5-yl)phenyl)cyclopropyl)-1-i-propyl-1H-pyrazolo[3,4-d]pyrimidine-6-carboxamide], the pIC50 was 7.96.
